In ChEMBL document CHEMBL4418261, “Pyripyropene derivatives having acat2 inhibiting activity and stable to metabolizing enzymes” (2017) one finds Ratio IC50 and half-life data, which are given here for 34 molecules.

The target of data set [1] is T1, Sterol O-acyltransferase 2 (Mus musculus) (UniProt O88908).
T1 sequence (whole entry): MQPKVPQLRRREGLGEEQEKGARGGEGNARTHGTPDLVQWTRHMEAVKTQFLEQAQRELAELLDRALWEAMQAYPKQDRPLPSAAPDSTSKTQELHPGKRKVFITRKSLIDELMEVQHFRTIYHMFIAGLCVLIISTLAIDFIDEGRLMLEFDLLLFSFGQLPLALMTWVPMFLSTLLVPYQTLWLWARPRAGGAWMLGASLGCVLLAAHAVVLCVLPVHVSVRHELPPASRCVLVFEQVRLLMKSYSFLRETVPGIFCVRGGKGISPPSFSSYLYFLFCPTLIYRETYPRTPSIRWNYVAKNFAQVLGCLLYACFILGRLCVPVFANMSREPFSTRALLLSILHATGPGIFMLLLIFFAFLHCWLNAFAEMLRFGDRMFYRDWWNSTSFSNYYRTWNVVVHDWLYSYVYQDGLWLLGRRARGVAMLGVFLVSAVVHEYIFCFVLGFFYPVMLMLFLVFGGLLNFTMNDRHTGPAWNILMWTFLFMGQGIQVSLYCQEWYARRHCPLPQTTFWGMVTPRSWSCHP
The experiment in a line: Potency index, ratio of PRD-043 IC50 to test compound IC50 for inhibition ACAT2 in mouse hepatic microsome membranes using [1-14C]oleoyl coenzyme A as substrate incubated for 5 mins. The data set is classed as microsomes.

A short description of data set [2]: Half life in Sprague-Dawley rat hepatic microsomes at 6 ug/ml by LC-MS method. It counts as ADME, Microsome. As to conditions: liver microsomes. (In general: Liver microsomes are a subcellular fraction often used to study metabolism.)

Where only a bound is given, the exact number is not on record here.

For `C[C@@]12CO[C@@H](c3ccccc3F)O[C@H]1CC[C@@]1(C)[C@H]2C[C@H](OC(=O)c2ccc(F)cc2)[C@@]2(C)Oc3cc(-c4cccnc4)oc(=O)c3[C@H](O)[C@H]12`, the Ratio IC50 in data set [1] was 10 to 20. For the same molecule, in data set [2], the half-life at 6 ug/ml was above 540 min.

As for `Cc1cccc([C@@H]2OC[C@@]3(C)[C@@H]4C[C@H](OC(=O)c5ccc(C#N)cc5)[C@@]5(C)Oc6cc(-c7cccnc7)oc(=O)c6[C@H](O)[C@@H]5[C@@]4(C)CC[C@@H]3O2)c1`, in data set [1], the Ratio IC50 was below 20. In data set [2], this molecule came in with a half-life at 6 ug/ml above 540 min.

On to `CC(=O)OC[C@@]1(C)[C@@H]2C[C@H](OC(=O)c3cccc(Br)c3)[C@@]3(C)Oc4cc(-c5cccnc5)oc(=O)c4[C@H](O)[C@@H]3[C@@]2(C)CC[C@@H]1OC(C)=O`, for which the half-life at 6 ug/ml in data set [2] is below 60 min.

In the case of `CC(=O)O[C@H]1C[C@H]2[C@]3(C)CO[C@@H](c4ccccc4)O[C@H]3CC[C@]2(C)[C@H]2[C@@H](O)c3c(cc(-c4cccnc4)oc3=O)O[C@]12C`, in data set [1], the Ratio IC50 is 10 to 20. This molecule yielded a half-life at 6 ug/ml in data set [2] above 540 min.

As for `Cc1ccc([C@@H]2OC[C@@]3(C)[C@@H]4C[C@H](OC(=O)c5ccc(C#N)cc5)[C@@]5(C)Oc6cc(-c7cccnc7)oc(=O)c6[C@H](O)[C@@H]5[C@@]4(C)CC[C@@H]3O2)cc1`, the Ratio IC50 in data set [1] was in the range of 10 to 20. The same molecule returned a half-life at 6 ug/ml in data set [2] above 540 min.

As for `Cc1ccccc1[C@@H]1OC[C@@]2(C)[C@@H]3C[C@H](OC(=O)c4ccc(F)cc4)[C@@]4(C)Oc5cc(-c6cccnc6)oc(=O)c5[C@H](O)[C@@H]4[C@@]3(C)CC[C@@H]2O1`, the Ratio IC50 in data set [1] fell in the range of 10 to 20. Further, the half-life at 6 ug/ml in data set [2] is above 540 min.

As to `C[C@]1(COC(=O)c2ccccc2)[C@@H]2C[C@H](OC(=O)c3ccc(C#N)cc3)[C@@]3(C)Oc4cc(-c5cccnc5)oc(=O)c4[C@H](O)[C@@H]3[C@@]2(C)CC[C@@H]1OC(=O)c1ccccc1`, the Ratio IC50 in data set [1] lay in the range of 10 to 20. In addition, the half-life at 6 ug/ml in data set [2] was above 540 min.

Take `Cc1ccc([C@@H]2OC[C@@]3(C)[C@@H]4C[C@H](OC(=O)c5ccc(C#N)cc5)[C@@]5(C)Oc6cc(-c7cccnc7)oc(=O)c6[C@H](O)[C@@H]5[C@@]4(C)CC[C@@H]3O2)c(C)c1`: the Ratio IC50 in data set [1] lay in the range of 10 to 20. The same molecule displayed a half-life at 6 ug/ml in data set [2] above 540 min.

For `C[C@@]12CO[C@@H](c3ccccc3)O[C@H]1CC[C@@]1(C)[C@H]2C[C@H](OC(=O)C2CCCCC2)[C@@]2(C)Oc3cc(-c4cccnc4)oc(=O)c3[C@H](O)[C@H]12`, the Ratio IC50 in data set [1] was in the range of 10 to 20. Also, the half-life at 6 ug/ml in data set [2] is above 540 min.

Take `CC(=O)OC[C@@]1(C)[C@@H]2C[C@H](OC(=O)c3ccc(C#N)cc3)[C@@]3(C)Oc4cc(-c5cccnc5)oc(=O)c4[C@H](O)[C@@H]3[C@@]2(C)CC[C@@H]1OC(=O)C(C)C`: the Ratio IC50 in data set [1] was below 20. Moreover, in data set [2], the half-life at 6 ug/ml was above 540 min.

As to `CC(=O)OC[C@@]1(C)[C@@H]2C[C@H](OC(C)=O)[C@@]3(C)Oc4cc(-c5cccnc5)oc(=O)c4[C@H](O)[C@@H]3[C@@]2(C)CC[C@@H]1OC(C)=O`, the half-life at 6 ug/ml in data set [2] is below 60 min.

For `CC(=O)OC[C@@]1(C)[C@@H]2C[C@H](OC(=O)c3ccccc3F)[C@@]3(C)Oc4cc(-c5cccnc5)oc(=O)c4[C@H](O)[C@@H]3[C@@]2(C)CC[C@@H]1OC(C)=O`, the half-life at 6 ug/ml in data set [2] was below 60 min.

As for `COc1ccccc1[C@@H]1OC[C@@]2(C)[C@@H]3C[C@H](OC(=O)c4ccc(C#N)cc4)[C@@]4(C)Oc5cc(-c6cccnc6)oc(=O)c5[C@H](O)[C@@H]4[C@@]3(C)CC[C@@H]2O1`, the Ratio IC50 in data set [1] lay within 10 to 20. Moreover, the half-life at 6 ug/ml in data set [2] is above 540 min.

In the case of `CC(C)C(=O)OC[C@@]1(C)[C@@H]2C[C@H](OC(=O)C3CCCCC3)[C@@]3(C)Oc4cc(-c5cccnc5)oc(=O)c4[C@H](O)[C@@H]3[C@@]2(C)CC[C@@H]1OC(=O)C(C)C`, the Ratio IC50 in data set [1] was 10 to 20. Also, the half-life at 6 ug/ml in data set [2] is above 540 min.

`CC(=O)O[C@H]1CC[C@@]2(C)[C@@H](C[C@H](OC(=O)c3ccc(C#N)cc3)[C@@]3(C)Oc4cc(-c5cccnc5)oc(=O)c4[C@H](O)[C@H]23)[C@]1(C)COC(=O)C(C)C`: in data set [1], the Ratio IC50 lay in the range of 10 to 20. Moreover, in data set [2], the half-life at 6 ug/ml was above 540 min.

In the case of `C[C@@]12CO[C@@H](c3ccccc3F)O[C@H]1CC[C@@]1(C)[C@H]2C[C@H](OC(=O)c2ccc(C#N)cc2)[C@@]2(C)Oc3cc(-c4cccnc4)oc(=O)c3[C@H](O)[C@H]12`, the Ratio IC50 in data set [1] was 10 to 20. In addition, in data set [2], the half-life at 6 ug/ml was above 540 min.

Take `COc1ccccc1[C@@H]1OC[C@@]2(C)[C@@H]3C[C@H](OC(=O)c4ccc(F)cc4)[C@@]4(C)Oc5cc(-c6cccnc6)oc(=O)c5[C@H](O)[C@@H]4[C@@]3(C)CC[C@@H]2O1`: in data set [1], the Ratio IC50 fell in the range of 10 to 20. In addition, in data set [2], the half-life at 6 ug/ml is above 540 min.

Take `CC(=O)O[C@H]1CC[C@@]2(C)[C@@H](C[C@H](OC(C)=O)[C@@]3(C)Oc4cc(-c5cccnc5)oc(=O)c4[C@H](O)[C@H]23)[C@]1(C)COC(=O)c1ccccc1`: in data set [1], the Ratio IC50 was in the range of 10 to 20. Also, the half-life at 6 ug/ml in data set [2] is above 540 min.

Turning to `CCCCCC(=O)OC[C@@]1(C)[C@@H]2C[C@H](OC(=O)c3ccc(C#N)cc3)[C@@]3(C)Oc4cc(-c5cccnc5)oc(=O)c4[C@H](O)[C@@H]3[C@@]2(C)CC[C@@H]1OC(=O)CCCCC`, the Ratio IC50 in data set [1] fell in the range of 10 to 20. The molecule also yielded a half-life at 6 ug/ml in data set [2] above 540 min.

As for `CC(C)C(=O)OC[C@@]1(C)[C@@H]2C[C@H](OC(=O)c3ccc([N+](=O)[O-])cc3)[C@@]3(C)Oc4cc(-c5cccnc5)oc(=O)c4[C@H](O)[C@@H]3[C@@]2(C)CC[C@@H]1OC(=O)C(C)C`, the Ratio IC50 in data set [1] was 10 to 20. In addition, in data set [2], the half-life at 6 ug/ml was above 540 min.

Turning to `CC(=O)OC[C@@]1(C)[C@@H]2C[C@H](OC(=O)c3ccc(C#N)cc3)[C@@]3(C)Oc4cc(-c5cccnc5)oc(=O)c4[C@H](O)[C@@H]3[C@@]2(C)CC[C@@H]1OC(=O)c1ccccc1`, in data set [1], the Ratio IC50 lay in the range of 10 to 20. For the same molecule, in data set [2], the half-life at 6 ug/ml was above 540 min.

For `CC(C)C(=O)OC[C@@]1(C)[C@@H]2C[C@H](OC(=O)c3ccc(C#N)cc3)[C@@]3(C)Oc4cc(-c5cccnc5)oc(=O)c4[C@H](O)[C@@H]3[C@@]2(C)CC[C@@H]1OC(=O)C(C)C`, the Ratio IC50 in data set [1] lay in the range of 0.1 to 1. The molecule also returned a half-life at 6 ug/ml in data set [2] above 540 min.

Turning to `Cc1ccc([C@@H]2OC[C@@]3(C)[C@@H]4C[C@H](OC(=O)c5ccc(F)cc5)[C@@]5(C)Oc6cc(-c7cccnc7)oc(=O)c6[C@H](O)[C@@H]5[C@@]4(C)CC[C@@H]3O2)cc1`, the Ratio IC50 in data set [1] was below 20. The same molecule registered a half-life at 6 ug/ml in data set [2] above 540 min.

As to `Cc1cccc(C)c1[C@@H]1OC[C@@]2(C)[C@@H]3C[C@H](OC(=O)c4ccc(C#N)cc4)[C@@]4(C)Oc5cc(-c6cccnc6)oc(=O)c5[C@H](O)[C@@H]4[C@@]3(C)CC[C@@H]2O1`, in data set [1], the Ratio IC50 was 10 to 20. The same molecule yielded a half-life at 6 ug/ml in data set [2] above 540 min.

Turning to `Cc1cccc([C@@H]2OC[C@@]3(C)[C@@H]4C[C@H](OC(=O)c5ccc(F)cc5)[C@@]5(C)Oc6cc(-c7cccnc7)oc(=O)c6[C@H](O)[C@@H]5[C@@]4(C)CC[C@@H]3O2)c1`, in data set [1], the Ratio IC50 is 10 to 20. The same molecule had a half-life at 6 ug/ml in data set [2] above 540 min.

For `COc1ccc(C(OC)O[C@H]2C[C@H]3[C@]4(C)CO[C@@H](c5ccccc5)O[C@H]4CC[C@]3(C)[C@H]3[C@@H](O)c4c(cc(-c5cccnc5)oc4=O)O[C@]23C)cc1` (stereo partly specified), the Ratio IC50 in data set [1] lay within 10 to 20. The molecule also gave a half-life at 6 ug/ml in data set [2] above 540 min.

In the case of `CC(=O)O[C@H]1CC[C@@]2(C)[C@@H](C[C@H](OC(=O)c3ccc(C#N)cc3)[C@@]3(C)Oc4cc(-c5cccnc5)oc(=O)c4[C@H](O)[C@H]23)[C@]1(C)COC(=O)c1ccccc1`, the Ratio IC50 in data set [1] is 10 to 20. In data set [2], the half-life at 6 ug/ml is above 540 min.

`CC(=O)OC[C@@]1(C)[C@@H]2C[C@H](OC(=O)c3ccccc3C)[C@@]3(C)Oc4cc(-c5cccnc5)oc(=O)c4[C@H](O)[C@@H]3[C@@]2(C)CC[C@@H]1OC(C)=O`: the half-life at 6 ug/ml in data set [2] is below 60 min.

As to `COc1cccc(C(=O)O[C@H]2C[C@H]3[C@](C)(COC(C)=O)[C@@H](OC(C)=O)CC[C@]3(C)[C@H]3[C@@H](O)c4c(cc(-c5cccnc5)oc4=O)O[C@]23C)c1`, the Ratio IC50 in data set [1] amounted to 1. Besides, the half-life at 6 ug/ml in data set [2] is above 540 min.

`C[C@@]12CO[C@@H](c3ccccc3)O[C@H]1CC[C@@]1(C)[C@H]2C[C@H](OC(=O)c2ccccc2)[C@@]2(C)Oc3cc(-c4cccnc4)oc(=O)c3[C@H](O)[C@H]12`: the Ratio IC50 in data set [1] was in the range of 10 to 20. Besides, the half-life at 6 ug/ml in data set [2] is above 540 min.

`CCc1ccc(C(=O)O[C@H]2C[C@H]3[C@](C)(COC(C)=O)[C@@H](OC(C)=O)CC[C@]3(C)[C@H]3[C@@H](O)c4c(cc(-c5cccnc5)oc4=O)O[C@]23C)cc1` registered a half-life at 6 ug/ml in data set [2] below 60 min.

For the molecule `CC(=O)O[C@H]1C[C@H]2[C@](C)(COC(=O)C(C)C)[C@@H](OC(=O)C(C)C)CC[C@]2(C)[C@H]2[C@@H](O)c3c(cc(-c4cccnc4)oc3=O)O[C@]12C`, the Ratio IC50 in data set [1] fell in the range of 10 to 20. In addition, the half-life at 6 ug/ml in data set [2] is above 540 min.

With `CC(=O)OC[C@@]1(C)[C@@H]2C[C@H](OC(=O)C3CCCCC3)[C@@]3(C)Oc4cc(-c5cccnc5)oc(=O)c4[C@H](O)[C@@H]3[C@@]2(C)CC[C@@H]1OC(C)=O`, in data set [2], the half-life at 6 ug/ml is below 60 min.

In data set [2], `CC(=O)OC[C@@]1(C)[C@@H]2C[C@H](OC(=O)c3ccc(C)cc3)[C@@]3(C)Oc4cc(-c5cccnc5)oc(=O)c4[C@H](O)[C@@H]3[C@@]2(C)CC[C@@H]1OC(C)=O` came in with a half-life at 6 ug/ml below 60 min.

Usually half-life stands for how long it takes for the measured level to halve. A higher half-life goes with slow loss.
